Experimental data taken from article PMC10818931, “In Vitro Evaluation of Drug–Drug Interaction Potential of Epetraborole, a Novel Bacterial Leucyl-tRNA Synthetase Inhibitor” (Pharmaceuticals, 2024).
Converted amounts (≈) assume the structure as drawn. Read-outs that look alike come from different tables or passages of the source.

How the values were obtained:
[1] = Apparent permeability through Caco-2 cell monolayers; settings: human, Caco-2
Experimental: (§1) ^14C-EBO permeability in Caco-2 Cells (MDR1/Protein Glycoprotein or P-gp) was determined using methodologies described previously. The apparent permeability of ^14C-EBO was determined in both the apical to basolateral and the basolateral to apical directions, in triplicate, at final concentrations of 1, 10, and 100 μM. Cell monolayers were incubated with ^14C-EBO at 37 °C for 1, 2, 3, and 4 h. The transepithelial electrical resistance (TEER) values of the monolayers prior to and following each experiment were measured to confirm the integrity of the Caco-2 cell monolayers. The apparent permeability of ^14C-EBO (at a final concentration of 10 μM) was determined in both the apical to basolateral and basolateral to apical directions under the same conditions as previously described in the presence of P-gp inhibitors cyclosporine A (10 μM) and verapamil (100 μM) in the donor compartment.

Caco-2 cell monolayers = assay: as above; settings: in vitro
Experimental: as §1

P-gp [2] = biological target: T1, P-gp (Homo sapiens, UniProt P08183); assay: Substrate potential for P-gp, bidirectional permeability in MDR1-MDCK; type: in vitro ADME; settings: for Concentration in the receiver compartment: 5 µM, MDR1-MDCK and MDCK cells, A to B and B to A, Papp and efflux ratio could not be calculated; for as a Substrate: P-gp
Experimental: In vitro evaluation of the substrate potential of EBO (5 µM) and M3 (5 µM) for P-gp was conducted in single transporter-transfected and non-transfected Madin–Darby canine kidney (MDCK) cells monolayers according to Absorption Systems (Exton, PA, USA) standard operating procedures (SOP). The integrity of each cell monolayer was evaluated by lucifer yellow presence.

P-gp [3] = biological target: T1, P-gp; assay: Inhibition of P-gp digoxin efflux transport in MDR1-MDCK cells
Experimental: A preincubation with EBO or known inhibitor was performed on both sides to preload the cells. After 30 min, the preincubation solution was aspirated. Aliquots of fresh dosing solution with or without EBO or known inhibitor (0.55 mL for AP-to-BL, 1.55 mL for BL-to-AP) were added to the donor compartment, and HBSSg_7.4 with or without EBO or known inhibitor (1.5 mL for AP-to-BL, 0.5 mL for BL-to-AP) were added to the receiver compartment. Receiver samples (200 µL) and donor samples (50 µL) were taken at preselected time points.
Cell monolayer integrity was examined using lucifer yellow (excitation 450 nm and emission 538 nm). The concentrations of the probe substrate in the donor and receiver samples, as well as EBO in dosing solutions, were determined by LC-MS/MS.

[4] = Solubility in hepatocyte incubation medium; type: physicochemical; settings: aqueous buffer, read-out: Soluble in hepatocyte incubation medium at
CYP2C19 = biological target: T2, CYP2C19 (Homo sapiens, UniProt P33261); assay: CYP inhibition (direct and metabolism-dependent) in human hepatic microsomes; type: in vitro ADME
T2 construct: tissue CellzDirect; XenoTech LLC; host or cells: pooled human liver microsomes
Experimental: (§2) The direct inhibitory potential of EBO on cytochrome P450 activities O-deethylase (CYP1A2), bupropion hydroxylase (CYP2B6), amodiaquine N-deethylase (CYP2C8), diclofenac 4′-hydroxylase (CYP2C9), S-mephenytoin 4′-hydroxylase (CYP2C19), bufuralol 1′-hydroxylase (CYP2D6), chlorzoxazone 6-hydroxylase (CYP2E1), testosterone 6β-hydroxylase (CYP3A), and midazolam 1′-hydroxylase (CYP3A) was assessed in vitro using human hepatic microsomes according to Covance Laboratory (Madison, WI, USA) SOP. A single substrate concentration was used, approximating the concentration of substrate that gives half the maximum reaction velocity (Km) for human hepatic microsomes for each cytochrome P450 activity. […] All sample and control incubations were performed in triplicate and were analyzed by LC-MS/MS. Incubation mixtures contained microsomal protein and substrate in a 0.1 M potassium phosphate buffer (pH 7.4) containing 1 mM EDTA (assay buffer). […] Incubations were terminated by the addition of 100 µL of an internal standard solution followed by vortex mixing. Protein was removed by centrifugation at 1500× g for 5 min at 4 °C, and supernatants were transferred to a separate plate and stored at 4 °C prior to LC-MS/MS analysis. The analyte for each activity assay was quantitated by comparison to a linear curve of an authentic standard prepared using human microsomal protein. […] Incubations were performed at substrate concentrations approximating the average Km values. […] For determination of control activities, NADPH was added after the addition of each substrate. Samples were then processed as previously described.

CYP2E1 = biological target: T3, CYP2E1 (Homo sapiens, UniProt P05181); assay: as above; type: in vitro ADME
T3 construct: Characterized, pooled, human hepatic microsomes from 15 individuals; tissue CellzDirect (Durham, NC, USA) or XenoTech LLC (Lenexa, KS, USA); host or cells: pooled human liver microsomes (15 donors)
Experimental: as §2

CYP2D6 = biological target: T4, CYP2D6 (Homo sapiens, UniProt P10635); assay: Automated time-dependent inhibition assay in HLM; type: in vitro ADME; settings: EBO 30 and 50 µM, 30 min preincubation with NADPH
T4 construct: Characterized, pooled, human hepatic microsomes from 15 individuals; tissue CellzDirect (Durham, NC, USA) or XenoTech LLC (Lenexa, KS, USA); host or cells: pooled human liver microsomes (15 donors)
Experimental: The effect of EBO (30 and 50 µM) on time-dependent inhibition of CYP3A4 (testosterone and midazolam substrate) and CYP2D6 ([…] substrate) was determined using methodologies described previously. The Genesis robot (Tecan, Reading, UK) running Gemini software (https://www.tecan.com) was used to perform a fully automated TDI assay. The assay ran a preincubation (30 min at 37 °C, 1 mg/mL HLM incubation containing 1 mM NADPH and EBO) and a secondary incubation (containing 50 µL aliquot from the preincubation, 1 mM NADPH, and substrates for CYP3A4 and CYP2D6). At the end of the secondary incubation (15 min at 37 °C), an aliquot (50 µL) was removed and added to 100 µL of methanol to quench the reaction. Quenched samples were then chilled at −20 °C for 2 h, centrifuged at 2000× g for 15 min, and the supernatants were transferred to microtiter plates for LC/MS-MS analysis.

[5] = cited from earlier work
P-gp [6] = biological target: T1, P-gp; assay: Caco-2 efflux ratio without/with P-gp inhibitor (P-gp substrate); type: in vitro ADME; set-up: host or cells: Caco-2; settings: for efflux ratio: Caco-2, 1, 10, 100 µM, 1–4 h
Experimental: as §1

P-gp [7] = biological target: T1, P-gp; assay: Effect on P-gp mediated transport of 3H-digoxin in Caco-2; type: in vitro ADME; set-up: host or cells: Caco-2
Experimental: The concentrations of each radiolabeled compound in the resulting samples were determined using liquid scintillation counting (LSC).

[8] = metabolism-dependent inhibition
[9] = EBO 500 mg PO q24h, healthy subjects, Study EBO-101, printed with "(unbound fraction)", read-out: Steady-state systemic total Cmax
[10] = human study of radiolabeled EBO

T1 sequence (P08183 whole entry): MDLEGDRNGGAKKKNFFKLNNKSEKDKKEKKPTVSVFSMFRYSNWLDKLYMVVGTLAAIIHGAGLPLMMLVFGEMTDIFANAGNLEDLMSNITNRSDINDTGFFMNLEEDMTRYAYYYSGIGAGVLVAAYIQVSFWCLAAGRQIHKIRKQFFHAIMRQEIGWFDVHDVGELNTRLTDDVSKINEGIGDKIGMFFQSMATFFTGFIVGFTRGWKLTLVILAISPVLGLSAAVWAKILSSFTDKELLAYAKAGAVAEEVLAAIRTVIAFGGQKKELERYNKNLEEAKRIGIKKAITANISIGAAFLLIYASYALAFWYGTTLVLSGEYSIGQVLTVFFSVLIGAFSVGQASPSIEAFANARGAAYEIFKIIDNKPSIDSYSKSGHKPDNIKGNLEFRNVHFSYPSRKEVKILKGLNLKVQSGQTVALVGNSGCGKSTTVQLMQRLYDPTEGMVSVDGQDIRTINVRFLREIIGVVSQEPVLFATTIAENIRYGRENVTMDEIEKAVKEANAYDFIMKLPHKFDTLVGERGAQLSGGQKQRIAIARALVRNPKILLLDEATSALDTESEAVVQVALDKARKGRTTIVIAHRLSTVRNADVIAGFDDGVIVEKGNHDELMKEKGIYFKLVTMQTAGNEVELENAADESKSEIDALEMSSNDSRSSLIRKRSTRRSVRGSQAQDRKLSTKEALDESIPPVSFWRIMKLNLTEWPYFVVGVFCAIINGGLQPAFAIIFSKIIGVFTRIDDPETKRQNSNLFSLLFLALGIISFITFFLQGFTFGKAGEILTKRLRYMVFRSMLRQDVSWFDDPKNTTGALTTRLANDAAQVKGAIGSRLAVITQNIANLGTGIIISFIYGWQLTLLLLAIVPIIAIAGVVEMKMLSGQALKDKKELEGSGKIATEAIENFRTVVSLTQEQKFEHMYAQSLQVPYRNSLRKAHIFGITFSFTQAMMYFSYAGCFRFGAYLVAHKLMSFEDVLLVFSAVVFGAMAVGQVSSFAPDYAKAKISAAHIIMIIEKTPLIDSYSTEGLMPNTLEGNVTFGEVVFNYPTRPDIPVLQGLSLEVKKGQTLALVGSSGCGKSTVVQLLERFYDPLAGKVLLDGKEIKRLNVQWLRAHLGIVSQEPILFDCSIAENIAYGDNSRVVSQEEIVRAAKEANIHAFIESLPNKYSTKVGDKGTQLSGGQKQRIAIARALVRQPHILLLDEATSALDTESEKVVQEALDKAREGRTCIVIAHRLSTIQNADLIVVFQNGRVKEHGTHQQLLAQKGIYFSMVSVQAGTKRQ
T3 sequence (P05181 whole entry): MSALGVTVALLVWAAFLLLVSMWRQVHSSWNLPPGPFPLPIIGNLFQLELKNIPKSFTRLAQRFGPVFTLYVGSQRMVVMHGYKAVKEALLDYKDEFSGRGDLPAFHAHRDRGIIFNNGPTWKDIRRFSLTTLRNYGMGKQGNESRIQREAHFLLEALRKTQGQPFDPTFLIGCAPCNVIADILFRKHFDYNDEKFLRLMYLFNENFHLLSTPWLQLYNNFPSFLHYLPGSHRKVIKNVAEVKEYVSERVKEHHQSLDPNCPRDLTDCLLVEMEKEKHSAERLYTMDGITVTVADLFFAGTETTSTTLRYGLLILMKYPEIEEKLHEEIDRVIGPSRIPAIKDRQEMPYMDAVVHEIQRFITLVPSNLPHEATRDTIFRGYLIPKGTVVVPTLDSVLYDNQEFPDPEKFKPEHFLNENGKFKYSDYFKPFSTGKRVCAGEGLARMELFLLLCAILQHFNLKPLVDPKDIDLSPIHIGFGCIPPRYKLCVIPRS
T2 sequence (P33261 whole entry): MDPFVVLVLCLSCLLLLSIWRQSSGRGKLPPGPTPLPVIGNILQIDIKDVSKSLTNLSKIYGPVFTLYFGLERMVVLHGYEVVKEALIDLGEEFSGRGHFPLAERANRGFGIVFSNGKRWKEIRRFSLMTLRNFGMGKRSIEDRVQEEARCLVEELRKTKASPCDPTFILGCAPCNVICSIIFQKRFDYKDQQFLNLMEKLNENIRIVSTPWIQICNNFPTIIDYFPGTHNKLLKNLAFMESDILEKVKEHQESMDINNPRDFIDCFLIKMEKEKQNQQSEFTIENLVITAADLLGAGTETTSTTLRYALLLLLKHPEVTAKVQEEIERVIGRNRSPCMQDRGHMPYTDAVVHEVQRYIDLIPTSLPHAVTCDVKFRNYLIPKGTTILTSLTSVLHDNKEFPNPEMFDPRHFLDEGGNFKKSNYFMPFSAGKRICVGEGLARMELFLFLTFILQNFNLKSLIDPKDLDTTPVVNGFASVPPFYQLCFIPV
T4 sequence (P10635 whole entry): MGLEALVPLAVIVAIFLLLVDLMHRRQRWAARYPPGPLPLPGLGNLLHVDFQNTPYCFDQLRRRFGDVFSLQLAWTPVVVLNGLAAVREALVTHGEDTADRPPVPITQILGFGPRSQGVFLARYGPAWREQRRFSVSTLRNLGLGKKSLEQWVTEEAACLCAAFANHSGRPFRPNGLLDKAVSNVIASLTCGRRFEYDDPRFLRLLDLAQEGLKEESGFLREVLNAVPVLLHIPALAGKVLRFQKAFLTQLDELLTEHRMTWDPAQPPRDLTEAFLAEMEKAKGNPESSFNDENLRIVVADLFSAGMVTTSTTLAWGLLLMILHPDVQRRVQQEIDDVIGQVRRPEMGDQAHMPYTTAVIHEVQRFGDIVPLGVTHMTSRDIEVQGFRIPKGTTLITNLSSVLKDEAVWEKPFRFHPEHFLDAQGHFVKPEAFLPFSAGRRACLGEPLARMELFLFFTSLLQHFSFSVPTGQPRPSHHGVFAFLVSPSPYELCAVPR

## NC[C@H]1OB(O)c2c(OCCCO)cccc21 [EBO, Epetraborole]
[1]
  Papp A→B: ≤ 0.31 ×10⁻⁶ cm/s
  Papp B→A: ≤ 0.35 ×10⁻⁶ cm/s
Caco-2 cell monolayers
  Permeability (in words): low permeability
P-gp [2]
  Concentration in the receiver compartment: below the lower limit of quantification
  as a Substrate: No
P-gp [3]
  IC50: 5.65 mM
P-gp [3]; human, pH 7.4
  [Igut]/IC50: ≤ 3
  inhibition at 17000 µM: > 50%
[4]
  solubility: 20 mM (≈ 4740 µg/mL)
CYP2C19; [8]
  MDI IC50 Fold Change: No
CYP2C19; read-out: as an Inhibitor IC50
  IC50: > 100 µM
CYP2E1; [8]
  MDI IC50 Fold Change: No
CYP2E1; read-out: as an Inhibitor IC50
  IC50: > 100 µM
CYP2D6
  Time-dependent inhibition: No time-dependent inhibition
[5]; 500 mg/day PO human clinical dose
  Cmax: 2.85 µg/mL
[5]; [9]
  Cmax: 12 µM
P-gp [6]; Caco-2, efflux ratio without/with P-gp inhibitor
  P-gp substrate: not a P-gp substrate
P-gp [6]; vehicle (no P-gp inhibitor), listed as 14C-EBO
  efflux ratio: <2
P-gp [6]; human, with cyclosporine A (10 µM), Cyclosporine A (10 µM), read-out: Efflux Ratio
  efflux ratio: < 2
P-gp [6]; human, with verapamil (100 µM), Verapmil (100 µM), read-out: Efflux Ratio
  efflux ratio: < 2
P-gp [6]; human, vehicle (no P-gp inhibitor), read-out: Efflux Ratio
  efflux ratio: < 2
P-gp [7]
  Inhibition of P-gp-mediated transport of digoxin: not a significant inhibitor
P-gp [7]; EBO 100 µM
  Efflux ratio of digoxin in the presence of test article: unchanged

## NC[C@H]1OB(O)c2c(OCCC(=O)O)cccc21 [M3]
P-gp [2]
  Concentration in the receiver compartment: below the lower limit of quantification
  as a Substrate: No
[4]
  solubility: 0.25 mM (≈ 62.8 µg/mL)
[5]; [9]
  Cmax: 20 µM
[5]; [10]
  Excretion (in words): excreted predominantly in the urine
  Further metabolism (in words): not subject to further metabolism
